How the values were obtained:
[1] = test system: MDA-MB-231 breast tumor cell line; assay: Growth inhibition of MDA-MB-231 breast tumor cell line; assay type: cell-based, human; conditions: for inhibition at 10 µM: Homo sapiens, MDA-MB-231, read-out: % growth inhibition at 10 μM
Human recombinant PDE 5A = Human recombinant PDE 5A (Homo sapiens, UniProt O76074); assay: Phosphodiesterase assay; assay type: biochemical; conditions: for % PDE 5 inhibition at 10 μM: recombinant human PDE5, 10 μM, duplicate values

Row | % PDE 5 inhibition at 10 μM (Human recombinant PDE 5A) | Structure (SMILES) | inhibition at 10 µM [1] [%] | other results
1 |  | COC(=O)[C@H]1Cc2c([nH]c3ccccc23)[C@H](c2ccc(Cl)c(Cl)c2)N1 [Compound 6, (1S,3R)Methyl-1-(3,4-dichlorophenyl)-2,3,4,9-tetrahydro-1H-β-carboline-3-carboxylate] |  | IC50 ([1]; read-out: growth inhibition IC50 (μM) and CI at p < 0.05, MDA-MB-231, at least 8 concentrations, quadruple replicates, CI in brackets): < 10 µM
2 | inactive | COC(=O)[C@H]1Cc2c([nH]c3ccccc23)[C@@H](c2c(Cl)cccc2Cl)N1 [Compound 9, (1R,3R)Methyl-1-(2,6-dichlorophenyl)-2,3,4,9-tetrahydro-1H-β-carboline-3 carboxylate] |  | 
3 | inactive | COC(=O)[C@@H]1Cc2c([nH]c3ccccc23)[C@H](c2c(Cl)cccc2Cl)N1 [Compound 10, (1S,3S)Methyl-1-(2,6-dichlorophenyl)-2,3,4,9-tetrahydro-1H-β-carboline-3-carboxylate] |  | 
4 |  | CCN1C(=O)[C@@H]2Cc3c([nH]c4ccccc34)[C@@H](c3ccc(Cl)cc3Cl)N2C1=O [Compound 14, (5R,11aS) 5-(2,4-Dichlorophenyl)-2-ethyl-5,6,11,11a-tetrahydro-1H-imidazo [1′,5′:1,6] pyrido[3,4-b]indole-1,3(2H)-dione] |  | selectivity index (Human recombinant PDE 5A; IC50 of PDE11A (cGMP)/IC50 of PDE5A (cGMP)): > 200
5 |  | COC(=O)[C@H]1Cc2c([nH]c3ccccc23)[C@@H](c2ccc(Cl)cc2Cl)N1C(=O)CCl [Compound 31, (1R,3R)Methyl 1-(2,4-Dichlorophenyl)-2-(2-chloroacetyl)-2,3,4,9-tetrahydro-1H-β-carboline-3-carboxylate] | 98 | 
6 |  | COC(=O)[C@H]1Cc2c([nH]c3ccccc23)[C@H](c2ccc(Cl)cc2Cl)N1C(=O)CCl [Compound 32, (1S,3R)Methyl 1-(2,4-Dichlorophenyl)-2-(2-chloroacetyl)-2,3,4,9-tetrahydro-1H-β-carboline-3-carboxylate] | 98 | growth inhibitory potency relative to 31 ([1]; MDA-MB-231): ~10 times

From publication PMC4994518 (Journal of medicinal chemistry, 2010)
